Consider 70 molecules from ChEMBL document CHEMBL3507680, “University of Dundee, Gates Library screen for HepG2 cell viability”.

A short description of this series: Human HepG2 cell viability assay in 384 well format. Type of series: toxicity, cell-based. Details: dose 125 nL, time 70.5 hour; cytotoxicity at 70.5 h: concentration not given beside the values. Conditions: HepG2 cells, read-out: Inhibition.
Regarding `CC1(C)O[C@@](C)([C@H]2CC3(CCN(c4ncccn4)CC3)CO2)CC[C@@H]1O`, the cytotoxicity at 70.5 h is -4.22%.
Then `NC(=O)CN1C[C@@H](c2ccccc2F)[C@@]2(CCCCC(=O)N2)C1`, with -7.09%; and `Cc1nn(C)cc1C(=O)N1CCC(C(=O)c2nc3ccccc3s2)CC1`, with -4.17%; and `CN(C(=O)c1ccncc1)c1nnc(C2CCOC2)s1` (stereo not given), with -5.28%.
As to `Cc1nn(C)c(C)c1-c1ccc(=O)n(C(C)C(=O)NCc2ccco2)n1` (stereo not given), the cytotoxicity at 70.5 h was -7.42%.
Under `CCc1c(C)nc2cc(-c3nccn3C)nn2c1N1CCCC(CO)C1` (stereo not given) stands 27.9%.
Under `Cn1ccnc1C(O)c1ccccc1N1CCN(CC2CCCC2)CC1` (stereo not given) stands -3.89%; under `Cc1cc(-c2cnc(N3CCCC(C)C3)nc2C(C)C)on1` (stereo not given), 18.8%.
Then `CCC(=O)NCCc1cc2nc(-c3ccncc3)ccn2n1`, with -5.77%; and `Cc1nc2cc(C3CCN(C(=O)c4ccccn4)CC3)nn2c(O)c1C`, with 44.6%.
`Cc1ncc(C(=O)N2CC(C(=O)N3CCOCC3)C2)c(C)n1`: the cytotoxicity at 70.5 h is -12.5%.
Under `O=C(Cn1c(=O)n(Cc2ccco2)c2ncccc21)NC1CCCC1` stands -7.12%.
Under `Cc1cc(-c2cnc(N3CCOCC3)nc2-c2ccc(C)s2)on1` stands -3.57%; under `Cc1cc(-c2cnc(N3CCSCC3)nc2-c2ccc(C)s2)on1`, -7.01%; under `Cc1cc(-c2cnc(N3CCCC3)nc2-c2ccc(C)s2)on1`, -6.38%.
Then `COCCC(=O)N1CCCC1c1csc(Nc2ccccn2)n1` (stereo not given), with 21.7%.
As to `CNc1ccc(CC2CCCN(C(=O)c3cccc(C)n3)C2)nn1` (stereo not given), the cytotoxicity at 70.5 h was -0.376%.
Under `COCC(=O)N1CCCC(c2cccc(-n3ccnc3)n2)C1` (stereo not given) stands 4.64%; under `COc1ccc(C)cc1CC(=O)N1CC[C@@]2(CCCO2)[C@@H](O)C1`, -5.66%; under `CO[C@H]1CN(Cc2cc(F)ccc2F)CC[C@@]12CCCO2`, -2.25%.
Then `Cc1cnccc1CN1CC[C@H](Oc2cccc(F)c2)[C@@](C)(O)C1`, with 0.441%.
Turning to `C[C@]1(O)CN(Cc2cccc(C(=O)O)c2)CC[C@@H]1Oc1cccc(F)c1`, the cytotoxicity at 70.5 h was -4.99%.
Under `CN(C)c1ccc(CC2COCCN(Cc3nccn3C)C2)nn1` (stereo not given) stands -0.733%; under `NC(=O)CN1CCC(c2cc(C(F)(F)F)n3ccnc3n2)CC1`, -3.15%; under `Cc1cccc(Nc2cc(C)nc(C3CCCCN3CC(N)=O)n2)n1` (stereo not given), -4.2%.
On to `CCn1ccc(C(=O)N2CCOC(c3nc(-c4cccs4)no3)C2)n1` (stereo not given), for which the cytotoxicity at 70.5 h is -4.33%.
Under `COCC(=O)N1CCCC1c1nccnc1Nc1ncccn1` (stereo not given) stands -3.81%; under `Cc1c[nH]nc1C1CCCN(C(=O)c2c(C)noc2C)C1` (stereo not given), -1.16%; under `Cn1nccc1CCC(=O)N1CCCC(Cc2cccnc2)C1` (stereo not given), -5.31%.
As to `CNc1cncc(C2CCCN2Cc2ccn(C)n2)n1` (stereo not given), the cytotoxicity at 70.5 h is -1.7%.
For `Cc1ncsc1C(=O)N1CCC(O)(CN2CCc3ccccc3C2)C1` (stereo not given), the cytotoxicity at 70.5 h worked out at 10.1%.
Then `Cc1ccc(C(=O)N2CCC(O)(CN3CCc4ccccc4C3)C2)s1` (stereo not given), with -2.78%; and `CCc1nccn1-c1cncc(C2CCCN2Cc2ccccn2)n1` (stereo not given), with -7.66%.
Then `Cc1ccn(CCC(=O)N2CCCC(Cc3cccnc3)C2)n1` (stereo not given), with -5.66%; and `Cc1ncsc1-c1nnc(C2CCN(Cc3ccccc3)CC2)o1`, with -1.36%; and `COCC(=O)N1CCCC1c1cc(N2CCN(C(C)=O)CC2)cc(C)n1` (stereo not given), with 22.7%.
Under `NC[C@H]1CC[C@H](C(NC(=O)C2CC2)c2ccccn2)CC1` (stereo not given in full) stands -6.56%.
As to `CC(=O)N1CCCC1c1cc(N2CCN(CC3CC3)CC2)cc(C)n1` (stereo not given), the cytotoxicity at 70.5 h was -1.76%.
Under `CC(=O)N1CCCCC1c1nc2c(c(NC3CCCC3)n1)CN(C)CC2` (stereo not given) stands 17%; under `COc1cccc(C(=O)N2CCCC2c2ncc3c(n2)CCN(C)C3)c1` (stereo not given), -0.392%; under `CCCC(=O)N1CCc2nc3cc(OC)c(OC)cc3c(=O)n2CC1`, -5.67%.
Under `CC(=O)NC[C@]1(O)CCN(C(=O)c2ccc(F)c(Cl)c2)C[C@H]1O` stands -6.22%.
Take `Cc1ccsc1CN(CCCN(C)C)Cc1ccccn1`: the cytotoxicity at 70.5 h was -3.09%.
Under `Cc1ccsc1C(=O)N1CCC2(CC(N(C)c3ccncn3)C2)C1` (stereo not given) stands -4.77%; under `Cc1csc(C(=O)N2CCC3(CC(N(C)c4ccncn4)C3)C2)c1` (stereo not given), -5.37%; under `Nc1cc(CCC2CN(Cc3ccc4c(c3)OCCO4)CCO2)ccn1` (stereo not given), 0.977%.
Then `Nc1cc(CCC2CN(Cc3ccc4cc[nH]c4c3)CCO2)ccn1` (stereo not given), with 20.8%; and `CN(c1ccncn1)C1CC2(CCN(C(=O)Cc3cccs3)C2)C1` (stereo not given), with -6.91%.
Consider `Cc1csc(C(=O)N2CC[C@H](Oc3cccnc3C)[C@@H](O)CC2)c1`, for which the cytotoxicity at 70.5 h was found to be 14%.
Under `Cn1ccc(C(=O)N2CCC(Cc3cccc4ncccc34)C2)n1` (stereo not given) stands -1.84%.
Under `C[C@]1(O)CN(CC(=O)N2CCCC2)CC[C@@H]1Oc1cccc(F)c1` stands 17.5%.
Take `CC(C)c1nccn1-c1cccc(C2CCCN(S(=O)(=O)N(C)C)C2)n1` (stereo not given): the cytotoxicity at 70.5 h was -3.37%.
Consider `O=C(c1cnccn1)N1CCCC(Cc2cccc3ncccc23)C1` (stereo not given), for which the cytotoxicity at 70.5 h is -4.96%.
Under `CNc1ccc(CC2CCCN(C(=O)c3cnco3)C2)nn1` (stereo not given) stands -9.21%; under `O=C(c1cnccn1)N1CCCC(c2cccc(-n3ccnc3)n2)C1` (stereo not given), 11.1%; under `OCCC1(NCc2ccc(-n3cccn3)cc2)CCOCC1`, -2.65%.
Then `Cc1nc2cc(-c3nccn3C)nn2c(N2CCC(O)CC2)c1C`, with -3.32%.
Then `Cc1nc(NCc2ccc(F)cc2)cc(C2CCCN2)n1` (stereo not given), with -2.67%; and `Cn1ccnc1CNC(=O)c1ccnc(C2CCNCC2)c1`, with -6.57%; and `O=C(NCC(F)F)c1cnc(C2CCCN2)cn1` (stereo not given), with -3.12%.
Consider `NCC(=O)N1CCCC1c1nccnc1Nc1ncccn1` (stereo not given), for which the cytotoxicity at 70.5 h is -1.95%.
Take `COc1ncc(C2(O)CCN(Cc3ccc(F)c(F)c3)CC2)c(OC)n1`: the cytotoxicity at 70.5 h was -3.5%.
On to `COc1ccc(-c2ccc(C3CNCCO3)nc2)cc1` (stereo not given), for which the cytotoxicity at 70.5 h was -5.61%.
Under `CNc1cc(C2CCCNC2)nc(C)n1` (stereo not given) stands 16.2%; under `COc1ccccc1CN(Cc1cccnc1)CC1CCCO1` (stereo not given), -1.02%.
Under `CN(C)CCN(C(=O)Cc1ccc2c(c1)OCCO2)C1CCN(C)CC1` stands 2.11%.
Then `CCCN(Cc1cccnc1)C1CC(C)(C)NC(C)(C)C1`, with -3.34%; and `CC1(C)CC(N(Cc2cccnc2)Cc2cccc(F)c2)CC(C)(C)N1`, with 2.01%; and `CCCOc1ccccc1CN[C@@H]1CCC[C@H]1Cc1cc(C)no1`, with 23.6%.
`Cc1cc(C[C@@H]2CCC[C@H]2NCc2cc(F)ccc2F)on1`: the cytotoxicity at 70.5 h was -1.78%.
